In patent US7183287B2, “Substituted pyrimidinones” (Pharmacia Corporation, priority 2003, dated 2007):

Molecular target: T1, human p38 kinase alpha (Homo sapiens, UniProt Q16539)
T1 construct: The coding region of the human p38a cDNA is obtained by PCR-amplification from RNA isolated from the human monocyte cell line THP.1; made in house; host or cells: E. coli DH10B (plasmid pMON 35802, pGEX 2T)
Test: p38 kinase alpha in vitro assay (phosphorylation of PHAS-I with 32P-ATP or of EGFRP with 33P-ATP)
Type: biochemical
Experimental: The ability of compounds to inhibit human p38 kinase alpha is evaluated using two in vitro assay methods. In the first method, activated human p38 kinase alpha phosphorylates a biotinylated substrate, PHAS-I (phosphorylated heat and acid stable protein-insulin inducible), in the presence of gamma ^32P-ATP (^32P-ATP). PHAS-I is biotinylated prior to the assay and provides a means of capturing the substrate, which is phosphorylated during the assay. p38 Kinase is activated by MKK6. Compounds were tested in 10 fold serial dilutions over the range of 100 μM to 0.001 μM using 1% DMSO. Each concentration of inhibitor is tested in triplicate.
All reactions are carried out in 96 well polypropylene plates. Each reaction well contains 25 mM HEPES pH 7.5, 10 mM magnesium acetate and 50 μM unlabeled ATP. Activation of p38 is required to achieve sufficient signal in the assay. Biotinylated PHAS-I is used at 1–2 μg per 50 μl reaction volume, with a final concentration of 1.5 μM. Activated human p38 kinase alpha is used at 1 μg per 50 μl reaction volume representing a final concentration of 0.3 μM. Gamma ^32P-ATP is used to follow the phosphorylation of PHAS-I. ^32P-ATP has a specific activity of 3000 Ci/mmol and is used at 1.2 μCi per 50 μl reaction volume. The reaction proceeds either for one hour or overnight at 30° C.
Following incubation, 20 μl of reaction mixture is transferred to a high capacity streptavidin coated filter plate (SAM-streptavidin-matrix, Promega) prewetted with phosphate buffered saline. […] The plates are sealed and counted.
A second assay format is also employed that is based on p38 kinase alpha induced phosphorylation of EGFRP (epidermal growth factor receptor peptide, a 21 mer) in the presence ^33P-ATP. […] Compounds were evaluated in 50 μl reaction volumes in the presence of 25 mM Hepes pH 7.5, 10 mM magnesium acetate, 4% glycerol, 0.4% bovine serum albumin, 0.4 mM DTT, 50 μM unlabeled ATP, 25 μg EGFRP (200 μM), and 0.05 μCi ^33P-ATP. […] 150 μl of Microscint 40 is then added to each well of the Microlite plate, and the plate is sealed, mixed, and counted.

T1 sequence (Q16539 whole entry): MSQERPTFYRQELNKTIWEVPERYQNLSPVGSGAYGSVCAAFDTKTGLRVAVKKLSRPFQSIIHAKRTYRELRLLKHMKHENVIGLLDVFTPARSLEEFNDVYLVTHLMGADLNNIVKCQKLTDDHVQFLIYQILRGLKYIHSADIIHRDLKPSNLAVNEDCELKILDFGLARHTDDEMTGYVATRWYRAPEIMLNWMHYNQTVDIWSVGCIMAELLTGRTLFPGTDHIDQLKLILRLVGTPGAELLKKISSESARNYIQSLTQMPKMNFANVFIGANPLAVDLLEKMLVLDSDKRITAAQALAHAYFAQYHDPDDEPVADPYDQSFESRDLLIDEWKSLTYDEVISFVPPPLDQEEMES

Row | IC50 | SMILES
1 | < 5 µM | O=c1c(Br)c(OCc2ccccc2)ncn1Cc1ccccc1
2 | < 5 µM | COC(=O)c1ccc(C)c(-n2c(C)nc(OCc3ccc(F)cc3F)c(Br)c2=O)c1
3 | < 5 µM | CNC(=O)c1ccc(C)c(-n2c(C)nc(OCc3ccc(F)cc3F)c(Br)c2=O)c1
